Reference: patent US11161831B2, “Methods and compositions for treatment of muscle wasting, muscle weakness, and/or cachexia” (Baylor College of Medicine, priority 2013, dated 2021)

Tests used:
[1] = tested on: CD2F1 mice bearing C26 tumor; assay: Cancer cachexia in CD2F1 mice bearing C26 tumor; assay type: in vivo, mouse
Protocol: FIGS. 39A-39G provides that blocking Stat3 activation with C188-9, a Stat3 inhibitor, suppresses cancer cachexia. CD2F1 mice bearing C26 tumor for 5 days were treated with C188-9 twice daily for 14 days. Results from these mice were compared to those of CD2F1 mice bearing tumor and treated with the diluent, 5% dextose in water (D5W). CD2F1 mice without C26 tumors served as the control mice. There were 12 mice in each group. FIG. 39A. representative western blots of different proteins (upper panel) were quantified (lower panel). Results shown are: FIG. 39B. body weights; FIG. 39C. muscle weights; FIG. 39D. the distribution of myofiber sizes of in the 3 groups of mice; FIG. 39E. muscle grip strength; and FIGS. 39F & 39G are measured rates of protein synthesis and degradation. Results are mean±SEM.
FIG. 41A. C2Cl2 myotubes were treated with conditioned media from C26 cells with or without C188-9 for 72 hours. A representative western blot showing a decrease in the myosin heavy chain is blocked by C188-9. FIG. 41B. C2Cl2 myotubes were treated with conditioned media from C26 cells with or without C188-9 for 24 hours. Levels of mRNAs of MAFbx/Atrogin-1 and MuRF-1 are shown. FIGS. 41C & 41D. CD2F1 mice bearing C26 tumors were treated with C188-9 for 2 weeks. […] FIG. 41E. […] Results are mean±SEM.
All animal experiments and procedures were approved by the Baylor College of Medicine Institutional Animal Care and Use Committee (IACUC). CD2F1 mice (Charles River; Houston, Tex.) were studied at 8-10 weeks of age following subcutaneous injection of C26 tumor cells (5×10^6 cells in 500 μL medium) in the right flank. After 5 days, tumor bearing mice were treated with daily injections of the diluent, D5W (control), or C188-9 (12.5 mg Stat3 inhibitor/kg body weight). Control and cancer bearing mice were pair-fed for 14 days and growth was measured. For pair-feeding, the amount eaten by the cancer-bearing mouse was fed to the paired, control mouse the following day.
As described Soleus and EDL muscles were rapidly removed from mice (Zhang et al., 2011; Clark and Mitch, 1983). The muscles were maintained at resting length during incubation in Krebs-Henseleit bicarbonate buffer with 10 mM glucose and L-[U-^14C]phenylalanine. Protein synthesis was measured as the rate of incorporation of L-[U-^14C]phenylalanine in muscle protein while protein degradation was assessed as the release of tyrosine from muscle proteins undergoing degradation. Phenylalanine and tyrosine were studied because they are neither synthesized nor degraded by muscle and they rapidly equilibrate with the intracellular free amino acid pool in muscle.
Proteasomes were partially purified by differential centrifugation; equal amounts of protein from the preparations of proteasomes were used to measure proteasome activity as the release of 7-amino-4-methylcoumarin (AMC) from the fluorogenic peptide substrate LLVY-AMC (N-Suc-Leu-Leu-Val-Tyr-AMC). AMC fluorescence was measured using 380 nm excitation and 460 nm emission wavelengths. The difference between the fluorescence measured in the presence and absence of […] lactacystin was used to calculate proteasome activity.
Mouse grip strength was measured as described (Zhang et al., 2013). Briefly, 5 grip strengths were assessed at 1 min intervals using the Grip Strength Meter (Columbus Instrument Co., Columbus, Ohio). The average grip strength over 4 days was calculated.

[2] = tested on: Janus kinases (Jak1, Jak2) or Src family kinases (Hck, Lyn or Srms); settings: 10 μM concentration; cited from earlier work
[3] = tumor bearing mice, EDL and soleus

Compound: COc1ccc(S(=O)(=O)Nc2cc(-c3c(O)ccc4ccccc34)c(O)c3ccccc23)cc1 [C188-9]
- Stat3 activation in muscle ([1]; 12.5 mg/kg for 14 days beginning at 5 days after tumor implantation): suppressed
- body weight ([1]; 14 days treatment, tumor in place for 19 days, vs. D5W): significant increase
- increased proteasome activity in muscle ([1]; mice bearing C26 tumor): suppressed
- grip strength ([1]; tumor bearing mice): improved grip strength
- sizes of myofibers ([1]; tumor bearing mice): improvement
- muscle protein degradation [1, 3]: decrease in protein degradation
- muscle protein synthesis [1, 3]: increase in protein synthesis
- weights of tibialis anterior, gastrocnemius, soleus and EDL muscles ([1]; vs. pair-fed, tumor bearing mice treated with D5W): significantly greater
- inhibition of upstream tyrosine kinases Jak1, Jak2, Hck, Lyn or Srms [2]: did not inhibit
